For orientation: Ki means a measure of affinity in units of concentration, obtained from inhibition or displacement. A low value points to higher affinity. As usually defined, the inhibition is the percentage by which the read-out fell short of the control.

The record followed here is ChEMBL document CHEMBL3585319 (J Med Chem, 2015).

Activity calls are given as the source filed them. No cut-off for these calls is given here.

The target of experiment [1] is Sodium-dependent serotonin transporter (Homo sapiens, UniProt P31645, S438T). Format: cell-based, HEK293.
The target in experiment [2] is T1, Sodium-dependent serotonin transporter (Homo sapiens, UniProt P31645). In words: Irreversible photoaffinity labeling of hemagglutinin-tagged human SERT expressed in LLCPK1 cells at 10 nM incubated for 1.5 hrs at 4 degC followed by irradiation with shortwave ultraviolet light for 5 mins by SDS-PAGE and autoradiography method. The format is cell-based. The following applies: LLC-PK1, tested as the 125I-labelled form.
Target sequence in this assay (P31645 whole entry, looked up): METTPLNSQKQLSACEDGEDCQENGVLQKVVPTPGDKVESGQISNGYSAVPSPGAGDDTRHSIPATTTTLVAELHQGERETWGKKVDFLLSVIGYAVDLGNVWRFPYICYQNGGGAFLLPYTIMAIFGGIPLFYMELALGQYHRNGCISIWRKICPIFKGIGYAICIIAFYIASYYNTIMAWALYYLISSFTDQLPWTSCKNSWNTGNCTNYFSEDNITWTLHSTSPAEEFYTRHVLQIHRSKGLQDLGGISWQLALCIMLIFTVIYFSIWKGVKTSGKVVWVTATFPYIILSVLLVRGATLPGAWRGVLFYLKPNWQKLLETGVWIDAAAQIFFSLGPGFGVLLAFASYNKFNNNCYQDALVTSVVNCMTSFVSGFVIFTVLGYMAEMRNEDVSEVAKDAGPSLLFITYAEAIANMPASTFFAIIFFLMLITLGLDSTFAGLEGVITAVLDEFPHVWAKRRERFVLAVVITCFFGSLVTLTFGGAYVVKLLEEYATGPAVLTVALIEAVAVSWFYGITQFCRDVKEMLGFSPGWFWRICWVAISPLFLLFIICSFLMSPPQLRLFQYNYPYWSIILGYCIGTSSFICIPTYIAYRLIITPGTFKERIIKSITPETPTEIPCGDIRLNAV

The target of experiment [3] is T1, Sodium-dependent serotonin transporter. In words: Irreversible photoaffinity labeling of hemagglutinin-tagged human SERT expressed in LLCPK1 cells assessed as 10 uM (s)-citalopram-induced blocking of compound binding at 10 nM incubated for 1.5 hrs at 4 degC followed by irradiation with shortwave ultraviolet light for 5 mins by SDS-PAGE and autoradiography method. The format is cell-based. To be noted: LLC-PK1, tested as the 125I-labelled form.
Target sequence in this assay (P31645 whole entry, looked up): as above

Experiment [4] has the same target. Kind of experiment: Inhibition of wild type human SERT expressed in HEK293 GripTite cells pre-incubated for 5 mins followed by [3H]5-HT addition by [3H]5-HT uptake assay. The format is cell-based.
Target sequence in this assay (P31645 whole entry): as the sequence (P31645 whole entry, looked up) above
The species named for a further experiment is Homo sapiens. Kind of experiment: Resistance index, ratio of Ki for human SERT S438T mutant expressed in HEK293 GripTite cells to Ki for wild type human SERT expressed in HEK293 GripTite cells. The format is cell-based.

Chain of Sodium-dependent serotonin transporter (Homo sapiens, UniProt P31645, S438T) (P31645 whole entry S438T): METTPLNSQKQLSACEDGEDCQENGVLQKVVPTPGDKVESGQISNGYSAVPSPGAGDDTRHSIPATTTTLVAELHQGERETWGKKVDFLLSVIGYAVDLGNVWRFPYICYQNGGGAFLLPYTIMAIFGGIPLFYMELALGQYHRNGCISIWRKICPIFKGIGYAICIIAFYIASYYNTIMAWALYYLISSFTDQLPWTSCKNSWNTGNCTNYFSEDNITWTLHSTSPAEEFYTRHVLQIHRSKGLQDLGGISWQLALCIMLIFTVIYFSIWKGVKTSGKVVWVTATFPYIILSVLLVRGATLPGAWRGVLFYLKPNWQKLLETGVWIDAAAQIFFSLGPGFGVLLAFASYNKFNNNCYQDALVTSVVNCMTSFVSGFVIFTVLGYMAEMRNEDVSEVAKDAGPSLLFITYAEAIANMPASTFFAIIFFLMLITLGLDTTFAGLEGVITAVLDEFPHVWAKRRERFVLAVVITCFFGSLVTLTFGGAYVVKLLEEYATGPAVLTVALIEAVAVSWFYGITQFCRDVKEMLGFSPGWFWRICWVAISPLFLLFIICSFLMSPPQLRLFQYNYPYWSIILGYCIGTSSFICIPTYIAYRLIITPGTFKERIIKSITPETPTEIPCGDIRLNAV

Take `CN(C)CCC[C@@]1(c2ccc(F)cc2)OCc2cc(CNC(=O)c3ccc(N=[N+]=[N-])c(I)c3)ccc21`: the inhibition constant (Ki) was found to be 5700 nM in experiment [1] and 24 nM in experiment [4]. Also, in experiment [2], the outcome was Active. In addition, in experiment [3], the inhibition is above 99%.

`CN(C)CCC[C@@]1(c2ccc(F)cc2)OCc2cc(CNC(=O)CCc3ccc(N=[N+]=[N-])c(I)c3)ccc21`: the Ki in experiment [1] came out at 9880 nM; in experiment [4], 38 nM. For the same molecule, the outcome in experiment [2] was Active. Besides, in experiment [3], the inhibition was above 99%.

As for `CN(CCC[C@@]1(c2ccc(F)cc2)OCc2cc(C#N)ccc21)CCc1ccc(N=[N+]=[N-])c(I)c1`, the figures for the Ki in experiment [1] and in experiment [4] were 3810 nM and 227 nM, respectively. Besides, in experiment [2], the outcome was Active. In the experiment filed under Homo sapiens, the Ratio Ki turned out to be 17. Besides, the inhibition in experiment [3] stood at 30%.

Take `COC(=O)[C@@H]1C2CCC(C[C@@H]1c1ccc(Cl)cc1)N2CCCCc1ccc(N=[N+]=[N-])c(I)c1` (some centres undefined): the result in experiment [2] was Active.
